# According to patent publication US12453769B2 (priority 2019, dated 2025):
# Tested on: gE-specific IFN-γ
# Design: species or system C57BL/6(N) mice
# Details: mouse, in vivo
substance,measurement,value
QS-21,induced production level of gE-specific IFN-γ (ELISPOT spot),the best effect
